“Also recorded” adds a separate entry of the source.
What was measured:
pituitary prolactinoma = conditions: patients; cited from earlier work
SD rats [1] = assay: Toxicity prediction (pre-experiment); format: in vivo; conditions: gavage 0.07 g/kg twice a day
Source text: (§1) 5 SPF-grade SD rats are randomly selected for toxicity prediction. Another 30 SPF-grade SD rats are randomly selected, wherein half are males, and half are females. After the purchase of the animals, the animals are adaptively fed for one week. The rats are fasted at the night before the experiment (without stopping the provision of water). During the experiment, the animals are randomly divided into 3 groups, which are the control group, the low-dose hordenine treatment group (0.035 g/kg), and the high-dose hordenine treatment group (0.07 g/kg).
7 mg/ml of hordenine solution (the theoretical maximum solubility of hordenine is 7 mg/ml) is used for pre-experiment to observe the survival of rats. 5 SPF-grade SD rats are randomly selected, and hordenine is administered by gavage at the maximum dose of 0.07 g/kg, twice a day, with an interval of no less than 4 hours, 1 day of administration, and 7 days of observation. The poisoning, death, and amounts of food and water consumed by the rats are daily observed and recorded. For rats that die during the experiment, they are immediately dissected to find the cause of death. After the completion of the experiment, all dying rats will be dissected to remove the heart, liver, spleen, lung and kidney for visual observation, and pathological sections of each organ are made to roughly determine the target organ of toxicity.

TLR4/NF-κB/MAPK pathway = assay: Western blot of pituitary protein expression in rats with prolactinoma and adrenocorticotrophic hormone adenoma; format: in vivo, F344 rats (Rattus norvegicus); conditions: once a day for 30 days by gavage; vs model group
Source text: (§2) 70 rats of the prolactinoma and adrenocorticotrophic hormone adenoma model as established in Step 1.1 “Establishment of Rattus norvegicus pituitary tumor model” and normal rats of the control group are used as samples.
(§3) The 70 F344 rats are randomly divided into the normal group, operation group, model group, positive drug group (bromocriptine positive drug group), high-dose hordenine group, medium-dose hordenine group, and low-dose hordenine group, […]. Except rats in the normal group and the operation group, rats in the other groups are all made into rats with prolactinoma and adrenocorticotrophic hormone adenoma.
(§4) Rats in the positive drug group are given an aqueous bromocriptine solution by gavage at a dose of 0.45 mg/kg. Rats in the high-, medium- and low-dose groups of an aqueous solution of hordenine are given an aqueous solution of hordenine by oral gavage at a dose of 40 mg/kg, 20 mg/kg, and 10 mg/kg, respectively. Rats in the normal group and the model group are given the same dose of distilled water. The administration is performed once a day for 30 days, and during this period of time, the rats are weighed every five days and the changes in body weight are recorded.
Tissue extraction: The animals in each group are anesthetized, and the pituitary glands are removed as described in Section 2.2.2 of Part I, which are kept at −80° C. for later use.
The protein expression of TLR4/NF-κB/MAPK pathway in rats in the treatment groups after the administration of hordenine is determined by Western blotting detection. The effect of hordenine on the expression of various proteins in the pituitary glands of rats with prolactinoma and adrenocorticotrophic hormone adenoma as determined by Western blot detection on is shown in FIG. 16.

SD rats [2] = assay: Acute toxicity test (maximum dose method); format: in vivo; design: key to Inflammation score: 0: no or very little inflammation; 1: mild inflammation; 2: moderate inflammation; 3: severe inflammation; conditions: for ALB / ALP / ALT / AST / DBIL / TBA / TBIL / TP / γ-GT: serum
Source text: The experimental animals are 40 SPF-grade SD rats, provided by the Experimental Animal Center of China Three Gorges University (SCXK (E)) 2017-0012), wherein half are males, and half are females, each with a body weight of 150 g; the animal number is: No. 42010200001245, and the experimental unit license number is: SYXK (E) 2014-0080.
as §1
If no rats die in the pre-experiment, according to the acute toxicity test method, the maximum dose method is used, and hordenine is administered by gavage at a high dose of 0.07 g/kg and a low dose of 0.035 g/kg, respectively. The control group is given the same volume of saline. The administration is carried out twice a day (with an interval of no less than 4 hours) for 7 days, and the rats are fasted for 3 to 4 hours after the administration. The animals' immediate reactions are recorded, and the rats' appearance, behavior, activity, spirit, appetite, fur, breathing, weight, and the like, are carefully observed continuously for 14 days. The poisoning, death, and amounts of food and water consumed by the rats are recorded daily to determine the LD0 (0% mortality), LD100 (100% mortality) and the r value between the corresponding dose groups, and determine the LD50 (half lethal dose) value. For mice that die during the experiment, they should be dissected immediately to find the cause of their death. After the completion of the experiment, all survived rats are anesthetized by intraperitoneal injection of urethane, and immediately dissected to remove the heart, liver, spleen, lung, and kidney, which are observed with naked eyes for disease. And pathological sections of each organ are made: The tissues are fixed with a solution of 4% paraformaldehyde, conventionally sampled, dehydrated, embedded in paraffin, made into a slice (4 μm thick), stained with HE staining method, observed with an optical microscope, and photographed to roughly determine the target organs of toxicity. The serum of all experimental rats is used for the determination of routine blood biochemical indexes.

prolactin (PRL) = assay: ELISA of prolactin content in serum of rats with prolactinoma and adrenocorticotrophic hormone adenoma; format: in vivo, F344 rats (Rattus norvegicus); conditions: oral gavage 40, 20, 10 mg/kg once a day for 30 days; vs model group
Source text: as §2, §3
as §4, with “recorded. […]” for “recorded.”
(§5) The contents of PRL and IL-β in the serum of rats in each group are determined by ELISA according to the procedures in the ELISA kit instructions.

IL-β = assay: ELISA of IL-β content in serum of rats with prolactinoma and adrenocorticotrophic hormone adenoma; format: in vivo, F344 rats (Rattus norvegicus); conditions: oral gavage 40, 20, 10 mg/kg once a day for 30 days; vs model group
Source text: as §2, §3
as §4, with “recorded. […]” for “recorded.”
as §5

[3] = gavage 0.07 and 0.035 g/kg twice a day for 7 days
[4] = low-dose, high-dose vs control, P>0.05
[5] = high-dose group (0.07 g/kg), female
[6] = high-dose group (0.07 g/kg), male
[7] = low-dose group (0.035 g/kg), female
[8] = low-dose group (0.035 g/kg), male

CC(C)C[C@H]1C(=O)N2CCC[C@H]2[C@]2(O)O[C@](NC(=O)[C@@H]3C=C4c5cccc6[nH]c(Br)c(c56)C[C@H]4N(C)C3)(C(C)C)C(=O)N12 [bromocriptine]
side effects (pituitary prolactinoma): mainly gastrointestinal reactions

CN(C)CCc1ccc(O)cc1 [hordenine, 4-(2-dimethylaminoethyl)phenol]
time to recovery of reduced activity after treatment (SD rats [1]; 1 day): about 2 hours
death of rats within 7 days (SD rats [1]; 1 day of administration, 7 days of observation): no rats die
general clinical signs (SD rats [1]; 1 day, 7 days of observation): no other adverse reactions
expression of ATCH in pituitary glands (Western blot) (TLR4/NF-κB/MAPK pathway): significantly reduce
expression of MAPK12 in pituitary glands (Western blot) (TLR4/NF-κB/MAPK pathway): significantly reduce; also recorded: significantly down-regulated
expression of NF-kB protein in pituitary glands (TLR4/NF-κB/MAPK pathway): significantly down-regulated
expression of PRL in pituitary glands (Western blot) (TLR4/NF-κB/MAPK pathway): significantly reduce
expression of STAT3 protein in pituitary glands (TLR4/NF-κB/MAPK pathway): significantly down-regulated
expression of TLR4 in pituitary glands (Western blot) (TLR4/NF-κB/MAPK pathway): significantly reduce; also recorded: significantly down-regulated
expression of TNF-α in pituitary glands (Western blot) (TLR4/NF-κB/MAPK pathway): significantly reduce
expression of caspase-1 protein in pituitary glands (TLR4/NF-κB/MAPK pathway): significantly down-regulated
Inflammation score (SD rats [2]; Heart, female, high-dose group): 0
Inflammation score (SD rats [2]; Heart, female, low-dose group): 0
Inflammation score (SD rats [2]; Heart, male, high-dose group): 0
Inflammation score (SD rats [2]; Heart, male, low-dose group): 0
Inflammation score (SD rats [2]; Kidney, female, high-dose group): 0
Inflammation score (SD rats [2]; Kidney, female, low-dose group): 0
Inflammation score (SD rats [2]; Kidney, male, high-dose group): 1
Inflammation score (SD rats [2]; Kidney, male, low-dose group): 0
Inflammation score (SD rats [2]; Liver, female, high-dose group): 0
Inflammation score (SD rats [2]; Liver, female, low-dose group): 0
Inflammation score (SD rats [2]; Liver, male, high-dose group): 0
Inflammation score (SD rats [2]; Liver, male, low-dose group): 0
Inflammation score (SD rats [2]; Lung, female, high-dose group): 1
Inflammation score (SD rats [2]; Lung, female, low-dose group): 0
Inflammation score (SD rats [2]; Lung, male, high-dose group): 1
Inflammation score (SD rats [2]; Lung, male, low-dose group): 0
Inflammation score (SD rats [2]; Spleen, female, high-dose group): 1
Inflammation score (SD rats [2]; Spleen, female, low-dose group): 0
Inflammation score (SD rats [2]; Spleen, male, high-dose group): 1
Inflammation score (SD rats [2]; Spleen, male, low-dose group): 0
general clinical signs (SD rats [2]; [3]): no other adverse reactions
time to recovery of reduced activity after treatment (SD rats [2]; [3]): about 2 hours
death of rats (SD rats [2]; gavage 0.07 g/kg and 0.035 g/kg twice a day for 7 days): No rats die; also recorded: no Rattus norvegicus death
lethal dose (SD rats [2]; gavage, twice a day for 7 days): greater than 0.14 g/kg
inflammation in the liver, spleen, and kidneys (pathological slices and biochemical experiments) (SD rats [2]; high-dose group): slight inflammation
kidney pathology (SD rats [2]; high-dose group): topical renal tubule interstitial connective tissue of rats in the high-dose group is proliferated
liver pathology (hepatocytes) (SD rats [2]; high-dose group): extensive severe edema
lung pathology (SD rats [2]; high-dose group): proliferated alveolar epithelial cells, and the alveolar walls are thickened
spleen pathology (white pulp) (SD rats [2]; high-dose group): topical lymphocytes in the white pulp of the spleen tissue are reduced
tissue inflammatory response in the spleen, lung, and kidney (SD rats [2]; high-dose group): mild inflammatory response
kidney pathology (SD rats [2]; low-dose group): no obvious abnormality
liver pathology (hepatocytes) (SD rats [2]; low-dose group): extensive edema
lung pathology (SD rats [2]; low-dose group): a large number of proliferated alveolar epithelial cells
spleen pathology (white pulp) (SD rats [2]; low-dose group): A small amount of lymphocytes exhibit necrosis, apoptosis
tissue inflammatory response (SD rats [2]; low-dose group): no inflammatory response
liver function indexes (SD rats [2]; [4]): no significant influence
renal function (blood BUN and CREA) (SD rats [2]; [4]): no significant influence
body weight (SD rats [2]; one week after the treatment): physiological increase
ALB (SD rats [2]; [5]): 32.45 ± 1.61 g/L
ALP (SD rats [2]; [5]): 195.08 ± 92.02 U/L
ALT (SD rats [2]; [5]): 51.25 ± 4.84 U/L
AST (SD rats [2]; [5]): 141 ± 12.04 U/L
DBIL (SD rats [2]; [5]): 7.23 ± 1.72 µmol/L
TBA (SD rats [2]; [5]): 27.57 ± 12.2 µmol/L
TBIL (SD rats [2]; [5]): 13.4 ± 5.73 µmol/L
TP (SD rats [2]; [5]): 55.45 ± 2.31 g/L
γ-GT (SD rats [2]; [5]): 3.62 ± 1.97 U/L
ALB (SD rats [2]; [6]): 29.5 ± 1.05 g/L
ALP (SD rats [2]; [6]): 278.67 ± 38.64 U/L
ALT (SD rats [2]; [6]): 51.47 ± 6.19 U/L
AST (SD rats [2]; [6]): 147.02 ± 17.42 U/L
DBIL (SD rats [2]; [6]): 6.14 ± 0.86 µmol/L
TBA (SD rats [2]; [6]): 41.43 ± 10.19 µmol/L
TBIL (SD rats [2]; [6]): 10.08 ± 2.69 µmol/L
TP (SD rats [2]; [6]): 49.11 ± 2.17 g/L
γ-GT (SD rats [2]; [6]): 3.9 ± 2.10 U/L
ALB (SD rats [2]; [7]): 31.88 ± 1.02 g/L
ALP (SD rats [2]; [7]): 229.4 ± 70.39 U/L
ALT (SD rats [2]; [7]): 43.54 ± 3.84 U/L
AST (SD rats [2]; [7]): 146.92 ± 24.61 U/L
DBIL (SD rats [2]; [7]): 9.03 ± 5.05 µmol/L
TBA (SD rats [2]; [7]): 23.77 ± 6.9 µmol/L
TBIL (SD rats [2]; [7]): 11.67 ± 5.16 µmol/L
TP (SD rats [2]; [7]): 53.54 ± 1.24 g/L
γ-GT (SD rats [2]; [7]): 3.92 ± 1.78 U/L
ALB (SD rats [2]; [8]): 28.86 ± 0.55 g/L
ALP (SD rats [2]; [8]): 328.05 ± 53.25 U/L
ALT (SD rats [2]; [8]): 40.46 ± 5.55 U/L
AST (SD rats [2]; [8]): 116.65 ± 18.14 U/L
DBIL (SD rats [2]; [8]): 6.81 ± 2.83 µmol/L
TBA (SD rats [2]; [8]): 36.99 ± 10.95 µmol/L
TBIL (SD rats [2]; [8]): 10.64 ± 4.19 µmol/L
TP (SD rats [2]; [8]): 47.34 ± 1.99 g/L
γ-GT (SD rats [2]; [8]): 2.59 ± 1.84 U/L
pathological sections: toxicity to liver, spleen, lung and kidney (SD rats [2]; treatment groups): slight toxicity
physiological conditions, weight changes, behavioral activities vs control group (SD rats [2]; treatment groups): no significant differences
expression of PRL in serum (ELISA) (prolactin (PRL)): significantly inhibit
expression of IL-β in serum (ELISA) (IL-β): significantly inhibit

Source: patent US20220047530A1, “USE OF HORDENINE IN PREPARING DRUG FOR TREATING HYPOPHYSOMA” (Wuhan Third Hospital, priority 2019, published 2022)
